Data on 2 compounds can be found in US20050095240A1, “NaCT as a target for lifespan expansion and weight reduction” (Medical College of Georgia Research, priority 2002, published 2005).

One assay has as its target T1, ceNaCT (Caenorhabditis elegans, UniProt P32739, I91S/L182M).
T1 sequence (P32739 1-551 I91S/L182M): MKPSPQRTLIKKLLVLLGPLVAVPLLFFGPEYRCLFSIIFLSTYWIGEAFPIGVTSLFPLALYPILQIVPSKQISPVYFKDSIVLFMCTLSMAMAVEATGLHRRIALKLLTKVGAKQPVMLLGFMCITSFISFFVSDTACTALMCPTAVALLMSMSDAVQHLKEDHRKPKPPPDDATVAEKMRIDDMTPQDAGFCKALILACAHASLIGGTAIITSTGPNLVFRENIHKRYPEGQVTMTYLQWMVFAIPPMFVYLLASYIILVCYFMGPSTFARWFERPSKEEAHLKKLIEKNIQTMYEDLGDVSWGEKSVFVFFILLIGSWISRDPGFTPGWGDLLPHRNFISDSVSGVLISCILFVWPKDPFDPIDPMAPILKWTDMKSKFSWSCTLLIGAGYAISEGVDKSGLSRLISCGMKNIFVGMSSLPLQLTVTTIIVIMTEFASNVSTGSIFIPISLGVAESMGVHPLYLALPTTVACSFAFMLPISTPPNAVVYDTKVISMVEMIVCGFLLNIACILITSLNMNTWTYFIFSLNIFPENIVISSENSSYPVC
In words: ceNaCT in X. laevis oocytes: uptake and two-electrode voltage clamp. It is filed as cell-based. From the text:
Electrophysiological studies of ceNaCT transport activity. Initially, ceNaCT cRNA prepared from the pSPORT-ceNaCT cDNA construct was used for functional expression of the transporter in X. laevis oocytes. These initial attempts were unsuccessful. Therefore, a X. laevis oocyte expression vector was used. The coding sequence of ceNaCT cDNA was amplified by PCR using the following primers: 5′-[…]-3′ (SEQ ID NO:23) (forward primer) and 5′-[…]-3′ (SEQ ID NO:24) (reverse primer). The forward primer contained the start codon and also an Xma I site introduced at the 5′-end for the purpose of subcloning. The reverse primer contained the termination codon and also a BamH I site at the 5′end for the purpose of subcloning. The PCR-derived ceNaCT coding fragment was then inserted into the Xma I/BamH I site in the oocyte expression vector pGHl9.

The target in another assay is T2, mouse NaCT (Mus musculus, UniProt Q67BT3).
T2 sequence (Q67BT3 1-572): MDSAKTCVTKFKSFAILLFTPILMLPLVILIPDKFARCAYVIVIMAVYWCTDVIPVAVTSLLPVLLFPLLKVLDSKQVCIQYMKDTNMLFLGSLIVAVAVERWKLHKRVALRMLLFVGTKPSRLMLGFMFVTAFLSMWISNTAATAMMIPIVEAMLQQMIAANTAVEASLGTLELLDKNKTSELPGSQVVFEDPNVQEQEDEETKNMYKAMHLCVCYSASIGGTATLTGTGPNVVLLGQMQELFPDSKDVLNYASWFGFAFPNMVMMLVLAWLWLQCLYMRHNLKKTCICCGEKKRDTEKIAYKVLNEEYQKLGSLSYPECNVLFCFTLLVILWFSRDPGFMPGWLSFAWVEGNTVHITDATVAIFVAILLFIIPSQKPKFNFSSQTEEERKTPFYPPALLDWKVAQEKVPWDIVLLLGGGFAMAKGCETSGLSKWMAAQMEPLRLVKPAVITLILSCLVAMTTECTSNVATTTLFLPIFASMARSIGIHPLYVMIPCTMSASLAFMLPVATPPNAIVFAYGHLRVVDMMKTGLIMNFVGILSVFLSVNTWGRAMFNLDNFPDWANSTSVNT
In words: Transport via mouse NaCT expressed in HRPE cells. It is filed as cell-based. Conditions: for [^3H]-Succinate transport (NaCT-specific) / [^3H]-Succinate transport, %: [3H]-succinate 0.1 μM; for [^3H]-Succinate transport (NaCT-specific) / [^3H]-Succinate transport, % / [^14C]-Citrate transport (NaCT-specific) / [^14C]-Citrate transport, %: substrate analog 2 mM; for [^3H]-Succinate transport, % / [^14C]-Citrate transport, %: control = 100; for [^14C]-Citrate transport (NaCT-specific) / [^14C]-Citrate transport, %: [14C]-citrate 10 μM.

The target in assay [1] is Phe→Leu mutant of human NaCT (Homo sapiens, UniProt Q86YT5, F500L). In words: Citrate uptake via Phe→Leu mutant of human NaCT in HRPE cells. It is filed as cell-based.
Phe→Leu mutant of human NaCT, sequence (Q86YT5 whole entry F500L): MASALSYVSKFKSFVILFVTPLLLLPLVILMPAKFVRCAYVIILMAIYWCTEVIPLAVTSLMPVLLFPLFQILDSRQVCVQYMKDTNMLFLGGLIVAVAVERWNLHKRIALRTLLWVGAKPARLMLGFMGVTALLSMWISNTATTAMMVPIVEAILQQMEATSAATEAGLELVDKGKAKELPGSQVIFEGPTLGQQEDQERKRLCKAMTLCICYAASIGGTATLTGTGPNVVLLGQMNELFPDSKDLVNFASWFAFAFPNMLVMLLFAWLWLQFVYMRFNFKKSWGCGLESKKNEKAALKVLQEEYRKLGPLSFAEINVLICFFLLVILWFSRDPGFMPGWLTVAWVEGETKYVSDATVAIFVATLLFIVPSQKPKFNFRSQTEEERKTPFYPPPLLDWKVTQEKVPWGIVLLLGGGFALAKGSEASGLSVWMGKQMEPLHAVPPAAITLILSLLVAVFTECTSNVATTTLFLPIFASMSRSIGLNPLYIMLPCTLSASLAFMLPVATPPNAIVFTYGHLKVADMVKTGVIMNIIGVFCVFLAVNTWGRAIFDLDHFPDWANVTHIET
Assay [2] concerns the target T3, drIndy (Drosophila melanogaster, UniProt Q9VVT2). In words: cell-based.
Assay [3] deals with T3, drIndy. Conditions: succinate 0.1 μM.
The target in a further assay is T4, rat NaDC3 (Rattus norvegicus, UniProt Q9Z0Z5).
T4 sequence (Q9Z0Z5 1-600): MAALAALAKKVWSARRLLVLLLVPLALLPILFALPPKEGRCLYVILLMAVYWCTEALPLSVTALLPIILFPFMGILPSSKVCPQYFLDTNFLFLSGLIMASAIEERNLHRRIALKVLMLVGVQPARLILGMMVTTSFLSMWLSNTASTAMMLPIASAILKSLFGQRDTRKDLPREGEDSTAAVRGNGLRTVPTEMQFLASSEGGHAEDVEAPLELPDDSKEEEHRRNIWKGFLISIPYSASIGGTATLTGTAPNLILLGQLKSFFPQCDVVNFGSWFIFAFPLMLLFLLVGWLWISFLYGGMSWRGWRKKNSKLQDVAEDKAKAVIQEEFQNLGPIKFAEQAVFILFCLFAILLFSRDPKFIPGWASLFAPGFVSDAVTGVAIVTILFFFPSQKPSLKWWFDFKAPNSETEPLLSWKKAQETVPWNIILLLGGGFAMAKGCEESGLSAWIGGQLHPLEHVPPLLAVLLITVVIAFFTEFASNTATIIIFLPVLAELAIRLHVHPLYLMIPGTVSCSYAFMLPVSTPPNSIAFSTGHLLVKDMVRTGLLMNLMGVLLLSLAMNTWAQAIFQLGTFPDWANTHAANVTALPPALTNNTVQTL
Conditions: medium with 135 μM citrate and 40 μM succinate.

For a further assay, the system named is NaDC1. Conditions: cited from earlier work.

T3 sequence (Q9VVT2 19-590): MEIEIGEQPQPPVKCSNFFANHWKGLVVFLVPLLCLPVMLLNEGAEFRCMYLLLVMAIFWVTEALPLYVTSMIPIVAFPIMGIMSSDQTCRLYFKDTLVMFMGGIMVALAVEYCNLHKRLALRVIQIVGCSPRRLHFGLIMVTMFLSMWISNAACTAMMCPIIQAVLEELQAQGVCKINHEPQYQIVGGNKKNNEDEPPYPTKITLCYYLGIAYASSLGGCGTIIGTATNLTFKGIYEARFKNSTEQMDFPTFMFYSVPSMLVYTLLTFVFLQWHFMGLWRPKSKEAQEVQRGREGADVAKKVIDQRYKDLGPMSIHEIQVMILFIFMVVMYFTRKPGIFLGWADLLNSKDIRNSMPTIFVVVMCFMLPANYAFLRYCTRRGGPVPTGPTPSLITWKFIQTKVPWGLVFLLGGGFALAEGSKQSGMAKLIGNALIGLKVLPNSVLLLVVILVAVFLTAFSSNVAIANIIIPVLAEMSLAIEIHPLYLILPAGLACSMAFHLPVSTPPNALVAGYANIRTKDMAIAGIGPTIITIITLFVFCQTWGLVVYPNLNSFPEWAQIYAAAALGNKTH

`O=C(O)CC(O)(CC(=O)O)C(=O)O` [Citrate]: at ceNaCT (citrate 40 μM, pH 6.5), the “Uptake in cRNA-injected vs water-injected oocytes” value was “about 45 fold” and the “Uptake of [^14C]citrate in ceNaCT cRNA-injected oocytes” value came to 12.9±0.8 pmol/oocyte/15 min. In addition, the “pH-dependent stimulation, pH 7.5 to 6.5” value on ceNaCT (citrate 250 μM) is on record as “about 1.25 fold”. Also, at ceNaCT (testing membrane potential −50 mV), the “Maximal current (Imax)” value amounted to 12.3±0.6 nA. On ceNaCT (testing membrane potential −70 mV, pH 6.5), the “K0.5, concentration of citrate for half-maximal current” value is 34 ± 8 µM. Moreover, the “Maximal current (Imax)” value on ceNaCT (testing membrane potential −150 mV) came to 61.1±2.6 nA. At mouse NaCT, the “Maximal velocity (Vmax)” value was determined as 118±6 pmol/10^6 cells/min; the “Michaelis-Menten constant (Kt) for transport via mouse NaCT” value worked out at 22 ± 2 µM; the “[^3H]-Succinate transport (NaCT-specific)” value was 0.004 ± 0.001 pmol/10^6 cells/min; the “[^3H]-Succinate transport, %” value is on record as 3%. At mouse NaCT, the “[^14C]-Citrate transport (NaCT-specific)” value amounted to 0.7 ± 0.1 pmol/10^6 cells/min and the “[^14C]-Citrate transport, %” value amounted to 2%. Further, the “Transport of citrate in cDNA-transfected cells” value on mouse NaCT (citrate 20 μM) came out at 48.4±1.0 pmol/10^6 cells/min. Moreover, on mouse NaCT (succinate 50 nM, citrate 20 μM), the “Transport in mouse NaCT cDNA-transfected cells vs vector alone” value worked out at 20.2 fold. Besides, in assay [1], the “Increase in substrate affinity of mutant vs wild type” value turned out to be 7 fold and the “Kt for citrate, Phe→Leu mutant” value was found to be 78 ± 8 µM. At drIndy [2], this compound returned an inhibitory constant (Ki) of 105 ± 35 µM.
Take `O=C(O)CCC(=O)O` [Succinate, succinate]: at mouse NaCT, the “Maximal velocity (Vmax)” value is 80±5 pmol/10^6 cells/min; the “Michaelis-Menten constant (Kt) for transport via mouse NaCT” value worked out at 33 ± 4 µM; the “[^3H]-Succinate transport (NaCT-specific)” value was 0.007 ± 0.003 pmol/10^6 cells/min; the “[^3H]-Succinate transport, %” value turned out to be 5%. On mouse NaCT, the “[^14C]-Citrate transport (NaCT-specific)” value was found to be 0.1 ± 0.1 pmol/10^6 cells/min and the “[^14C]-Citrate transport, %” value came to 1%. For the same compound, the “Transport of succinate in cDNA-transfected cells” value at mouse NaCT (succinate 50 nM) came to 42.7±4.6 fmol/10^6 cells/min. The “Transport in mouse NaCT cDNA-transfected cells vs vector alone” value on mouse NaCT (succinate 50 nM, citrate 20 μM) was found to be 7.8 fold. Also, the “Uptake of radiolabelled succinate in drIndy cRNA-injected vs water-injected oocytes” value at drIndy [3] was 12 fold. The “Succinate uptake at physiological concentrations” value on rat NaDC3 worked out at 0.48±0.01 nmol/10^6 cells/minute. Besides, the “Michaelis-Menten constant for succinate, NaDC1” value with NaDC1 was 0.1 to 4.0 mM.
